Assay results from US20260130933A1, “PHARMACEUTICAL COMPOSITION FOR PREVENTION OR TREATMENT OF NEPHROPATHY AND/OR DIABETES MELLITUS, COMPRISING ENAVOGLIFLOZIN” (DAEWOONG PHARMACEUTICAL CO., LTD., priority 2022, published 2026).

Experiment: Example 3: phase 3 trial, enavogliflozin 0.3 mg vs dapagliflozin 10 mg once a day for 24 weeks added to metformin and gemigliptin in patients with type 2 diabetes (same endpoints, rescue drug)
Assay type: in vivo, human
Procedure: 1) when Metformin (≥1,000 mg/Day) was Administered at a Constant Dose for at Least 8 Weeks Prior to Pre-Visit (Pre-Screening) • Metformin (≥1,000 mg/day) and gemigliptin (50 mg/day) were co-administered during the 8-week stabilization period. […] 4) when Metformin (≥1,000 mg/Day) and Gemigliptin (50 mg/Day) were Co-Administered at Constant Doses for at Least 8 Weeks Prior to Pre-Visit (Prescreening) • Without a separate stabilization period, Pre-visit (pre-screening) was Visit 1 (screening).
Subjects who met the inclusion/exclusion criteria continued to receive metformin and gemigliptin while receiving a placebo of the clinical trial drug in a single-blind (subject-blinded) state for a 2-week run-in period.
Here, the randomized subjects were stratified according to the administration therapy (co-administration with two or less agents (one or two agents) or three or more agents) of a conventional hypoglycemic agent (before washout of another hypoglycemic agent) within 24 weeks prior to obtaining written informed consent and by an HbA1c value (<8% or ≥8%) at Visit 1 (screening) measured in the central laboratory.
The randomized subjects were administered two tablets of the clinical trial drug corresponding to each administration group once a day, and then visited the institution at weeks 6, 12, 18, and 24 during the 24-week administration period to conduct efficacy and safety assessments. In addition, during the clinical trial period, they were instructed to exercise regularly and control their diet without changing their daily life patterns.
• 1) Change in HbA1c at week 24 after administration of clinical trial drug compared to Visit 2 (randomization)
• 1) Change in HbA1c at each time point of weeks 6, 12, and 18 after administration of clinical trial drug compared to Visit 2 (randomization) • 2) Change in FPG at each time point of weeks 6, 12, 18, and 24 after administration of clinical trial drug compared to Visit 2 (randomization) • 3) Proportion of subjects achieving HbA1c<7% at each time point of weeks 6, 12, 18, and 24 after administration of clinical trial drug • 4) Proportion of subjects achieving HbA1c<6.5% at each time point of weeks 6, 12, 18, and 24 after administration of clinical trial drug • 5) Proportion of subjects achieving therapeutic response (HbA1c change (HbA1c at Visit 2—HbA1c at each evaluation time point)>0.5% or HbA1c<7% at each evaluation time point compared to Visit 2 (randomization)) at each time point of weeks 6, 12, 18, and 24 after administration of clinical trial drug • 6) Proportion of subjects achieving therapeutic response (HbA1c change (HbA1c at Visit 2—HbA1c at each evaluation time point)>0.7% or HbA1c<7% at each evaluation time point compared to Visit 2 (randomization)) at each time point of weeks 6, 12, 18, and 24 after administration of clinical trial drug • 7) Proportion of subjects achieving therapeutic response (HbA1c change (HbA1c at Visit 2—HbA1c at each evaluation time point)>1% or HbA1c<7% at each evaluation time point compared to Visit 2 (randomization)) at each time point of weeks 6, 12, 18, and 24 after administration of clinical trial drug

[1] = week 6, modified per-protocol set 1, enavogliflozin 0.3 mg vs dapagliflozin 10 mg
[2] = week 6, modified per-protocol set 1, enavogliflozin 0.3 mg, dapagliflozin 10 mg

## OC[C@H]1O[C@@H](c2cc(Cc3ccc(C4CC4)cc3)c(Cl)c3c2CCO3)[C@H](O)[C@@H](O)[C@@H]1O [Enavogliflozin, (2S,3R,4R,5S,6R)-2-(7-chloro-6 (4-cyclopropylbenzyl)-2,3-dihydrobenzofuran-4-yl)-6-(hydroxymethyl)tetrahydro-2H-pyran-3,4,5-triol]
24 weeks, vs dapagliflozin
  Incidence of adverse events or adverse drug reactions between groups: no statistically significant differences
Baseline, PPS
  HbA1c, Mean (SD): 7.79%
  HbA1c, Median: 7.60%
HbA1c change at week 24, vs dapagliflozin
  Non-inferiority (margin 0.35): not inferior
Week 24, PPS
  HbA1c change from baseline, ANCOVA LS mean (SE): −0.92 % p
  HbA1c change from baseline, Mean (SD): −0.93 % p
  HbA1c change from baseline, Median: −0.83 % p
  HbA1c, Mean (SD): 6.86%
  HbA1c, Median: 6.76%
Week 24, PPS, enavogliflozin minus dapagliflozin
  HbA1c change from baseline, LS mean difference: −0.06 % p
Week 24, PPS, enavogliflozin vs dapagliflozin
  Non-inferiority (UCI < 0.35%) in HbA1c change: Yes
Week 6
  FPG change from baseline, LS mean (SE): −25.96(1.42) mg/dL
  HDL-C change from baseline, LS mean (SE): 1.96(0.57) mg/dL
  HOMA-IR change from baseline, LS mean (SE): −0.94(0.15)
  HOMA-β change from baseline, LS mean (SE): 8.13(3.08)
  HbA1c change from baseline, LS mean (SE): −0.73(0.03) % p
  LDL-C change from baseline, LS mean (SE): 2.49(1.81) mg/dL
  UACR change from baseline, LS mean (SE): −8.76(3.43) g/kg
  UGCR change from baseline, LS mean (SE): 58.10(2.18) mg/mg
  adiponectin change from baseline, LS mean (SE): −0.10 (0.34) μg/mL
  body weight change from baseline, LS mean (SE): −1.92(0.17) kg
  diastolic blood pressure change from baseline, LS mean (SE): −2.04(0.70) mmHg
  fasting C-peptide change from baseline, LS mean (SE): −0.05(0.02) ng/mL
  leptin change from baseline, LS mean (SE): −1.83(0.45) ng/mL
  systolic blood pressure change from baseline, LS mean (SE): −2.76(0.90) mmHg
  total cholesterol change from baseline, LS mean (SE): 5.07 (1.97) mg/dL
  triglyceride change from baseline, LS mean (SE): −6.85(4.47) mg/dL
Week 6, vs dapagliflozin
  FPG change from baseline, LS mean difference: -3.24 mg/dL
  HDL-C change from baseline, LS mean difference: 0.83 mg/dL
  HOMA-IR change from baseline, LS mean difference: 0.05
  HOMA-β change from baseline, LS mean difference: 4.93
  HbA1c change from baseline, LS mean difference: −0.03 % p
  LDL-C change from baseline, LS mean difference: 0.57 mg/dL
  Odds ratio for achieving HbA1c<6.5%: 0.65
  Odds ratio for achieving HbA1c<7%: 1.22
  Odds ratio, therapeutic response (HbA1c change >0.5% or HbA1c<7%): 1.52
  Odds ratio, therapeutic response (HbA1c change >0.7% or HbA1c<7%): 1.16
  Odds ratio, therapeutic response (HbA1c change >1% or HbA1c<7%): 1.38
  UACR change from baseline, LS mean difference: 6.09 g/kg
  UGCR change from baseline, LS mean difference: 12.35 mg/mg
  adiponectin change from baseline, LS mean difference: -0.47 µg/mL
  body weight change from baseline, LS mean difference: -0.13 kg
  diastolic blood pressure change from baseline, LS mean difference: −0.16 mmHg
  fasting C-peptide change from baseline, LS mean difference: -0.01 ng/mL
  leptin change from baseline, LS mean difference: 0.20 ng/mL
  systolic blood pressure change from baseline, LS mean difference: 0.73 mmHg
  total cholesterol change from baseline, LS mean difference: 2.45 mg/dL
  triglyceride change from baseline, LS mean difference: -1.46 mg/dL
[1]
  Change from baseline in HDL-C, ANCOVA LS mean difference: 0.83 mg/dL
  Change from baseline in LDL-C, ANCOVA LS mean difference: 0.57 mg/dL
  Change from baseline in total cholesterol, ANCOVA LS mean difference: 2.45 mg/dL
  Change from baseline in triglycerides, ANCOVA LS mean difference: -1.46 mg/dL
[2]
  Change from baseline in HDL-C, ANCOVA LS mean: 1.96 mg/dL
  Change from baseline in HDL-C, Mean: 1.90 mg/dL
  Change from baseline in HDL-C, Median: 2.00 mg/dL
  Change from baseline in LDL-C, ANCOVA LS mean: 2.49 mg/dL
  Change from baseline in LDL-C, Mean: 2.42 mg/dL
  Change from baseline in LDL-C, Median: -1.00 mg/dL
  Change from baseline in total cholesterol, ANCOVA LS mean: 5.07 mg/dL
  Change from baseline in total cholesterol, Mean: 4.65 mg/dL
  Change from baseline in total cholesterol, Median: 3.00 mg/dL
  Change from baseline in triglycerides, ANCOVA LS mean: -6.85 mg/dL
  Change from baseline in triglycerides, Mean: -4.37 mg/dL
  Change from baseline in triglycerides, Median: -1.00 mg/dL
  Fasting HDL-C, Mean: 47.99 mg/dL
  Fasting HDL-C, Median: 46.00 mg/dL
  Fasting LDL-C, Mean: 73.35 mg/dL
  Fasting LDL-C, Median: 68.00 mg/dL
  Fasting total cholesterol, Mean: 138.43 mg/dL
  Fasting triglycerides, Mean: 112.71 mg/dL
  Fasting triglycerides, Median: 101.00 mg/dL
  fasting Total cholesterol, Median: 134.00 mg/dL
